System: cysteines in NSCLC cell proteomes (H460 cells)
Assay: isoTOP-ABPP of compound-treated H460 cells, proteome-wide
Format: cell-based, human
Settings: KEAP1-mutant NSCLCs
Description: For analysis of NR0B1 ligands or control compound reactivity, H460 cells or H460 cells expressing luciferase in a 10 cm plate were incubated with indicated compounds in serum/dye-free RPMI for 3 hours at 37° C. Cells were washed once ice-cold PBS and lysed in 1% Triton X-100 dissolved in PBS with protease inhibitors (Sigma) by sonication. Samples were clarified by centrifugation for 10 min at 16,000×g. Lysate was adjusted to 1.5 mg ml^−1 in 500 μL.
Samples were labeled for 1 h at ambient temperature with 100 μM iodoacetamide alkyne (1, IA-alkyne, 5 μL of 10 mM stock in DMSO). Samples were conjugated by copper-catalyzed azide-alkyne cycloaddition (CuAAC) to isotopically labeled, TEV-cleavable tags (TEV-tags). Heavy CuAAC reaction mixtures was added to the DMSO-treated or shGFP control samples and light CuAAC reaction mixture was added to compound-treated or shNRF2 samples. The CuAAC reaction mixture consisted of TEV tags (light or heavy, 10 μL of 5 mM stocks in DMSO, final concentration=100 μM), 1 mM tris(2-carboxyethyl)phosphine hydrochloride (TCEP; fresh 50× stock in water, final concentration=1 mM), ligand (17× stock in DMSO:t-butanol 1:4, final concentration=100 μM) and 1 mM CuSO4 (50× stock in water, final concentration=1 mM). The samples were allowed to react for 1 h at which point the samples were centrifuged (16,000×g, 5 min, 4° C.). […]

Row | Compound | overall proteomic selectivity
1 | O=C(CCl)N(Cc1cccc(Cl)c1F)c1ccc(Cl)nc1 [BPK-26, 2-chloro-N-(3-chloro-2-fluorobenzyl)-N-(6-chloropyridin-3-yl)acetamide] | good overall proteomic selectivity
2 | O=C(c1ccc(N2CCOCC2)cc1)N1CCCC(N(Cc2ccccc2)C(=O)CCl)CC1 (centres unmarked) [BPK-29, N-benzyl-2-chloro-N-(1-(4-morpholinobenzoyl)azepan-4-yl)acetamide] | good overall proteomic selectivity

— patent US20200278355A1, “CONJUGATED PROTEINS AND USES THEREOF” (THE SCRIPPS RESEARCH INSTITUTE, priority 2017, published 2020)
